Measurements: patent publication US8524866B2, “Antibodies to the alpha-7 nicotinic receptors and methods of treating inflammatory disorders with the same” (The Feinstein Institute for Medical Research, priority 2005, dated 2013)

Biological target: α-bungarotoxin-binding nicotinic receptors on primary human macrophages (Homo sapiens, UniProt P36544)
Sequence (P36544 23-502): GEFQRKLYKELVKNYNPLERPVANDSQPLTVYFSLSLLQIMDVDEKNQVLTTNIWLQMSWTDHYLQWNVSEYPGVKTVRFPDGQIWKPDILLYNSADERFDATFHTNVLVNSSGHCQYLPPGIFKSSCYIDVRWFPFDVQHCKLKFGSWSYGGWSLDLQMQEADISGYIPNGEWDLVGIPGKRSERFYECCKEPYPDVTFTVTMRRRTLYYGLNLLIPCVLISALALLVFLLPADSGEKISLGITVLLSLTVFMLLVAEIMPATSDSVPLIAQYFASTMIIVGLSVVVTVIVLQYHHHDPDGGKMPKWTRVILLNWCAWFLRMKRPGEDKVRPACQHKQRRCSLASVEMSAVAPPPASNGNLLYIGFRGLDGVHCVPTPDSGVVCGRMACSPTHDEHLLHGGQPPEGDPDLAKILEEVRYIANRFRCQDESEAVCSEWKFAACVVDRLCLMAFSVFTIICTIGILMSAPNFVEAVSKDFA

Compound: CN1CCCC1c1cccnc1 (centres unmarked) [Nicotine]
- effect on intensity of α-bungarotoxin binding: markedly reduced

Compound: α-bungarotoxin
- binding on the macrophage surface: Strong binding
